These are literature values, as cited in article PMC5078025, “Necrosis-inducing peptide has the beneficial effect on killing tumor cells through neuropilin (NRP-1) targeting” (Oncotarget, 2016).

In the series the test system is various tumor cells. The note with it: four leucine residues of MTD replaced by alanine; cited from earlier work. The text has this:
We reported a 10-residue long, pro-necrotic peptide derived from the mitochondrial targeting domain (MTD) located in the C-terminal region of Noxa, a BH-3 only protein of Bcl-2 family. The MTD region of Noxa is responsible not only for mitochondrial targeting of Noxa but also for mitochondrial fragmentation induced by Noxa. Two […]) in the region of MTD play a key role in mitochondrial fragmentation induced by Noxa. […] Therefore, we determined whether TU17:MTD could discriminate tumor and normal cells in vitro.

Consider KLLNLISKLF [MTD], for which the “killing activity and mitochondrial targeting activity” value is “abolishes the killing activity and mitochondrial targeting activity”.
